How the values were obtained:
Winter barley = experiment: Post-emergence test, degree of damage to crop plants; format: in vivo; conditions: rated about three weeks after application
Description: (§1) The active compound or safener components are in each case dissolved in a few ml (generally 2-3 ml) of solvent (generally acetone or N,N-dimethyl-formamide), and the solutions are combined and then—if appropriate after addition of an emulsifier—diluted with water to the desired concentration. In general, an aqueous spray liquor was prepared using 0.1% of the additive Renex-36.
(§2) The test plants are grown under controlled conditions (temperature, light, atmospheric humidity) in a greenhouse. The test plants are sprayed when they have reached a height of 5-15 cm. The concentration of the spray liquor is chosen such that the particular amounts of active compound desired are applied in 500 l of water/ha.
(§3) After spraying, the pots with the test plants are kept in a greenhouse chamber under controlled conditions (temperature, light, atmospheric humidity) until the test has ended. About three weeks after the application, the degree of damage to the crop plants is rated in % damage in comparison to the development of the untreated control.
(§4) The figures denote: • 0% no damage (like untreated control) • 100% total destruction/damage

Winter wheat = experiment: as above; format: in vivo; conditions: rated about three weeks after application
Description: as §1, §2, §3, §4

[1] = safener alone, application rate 50 g of ai/ha
[2] = application rate 250 g of ai/ha
[3] = application rate 125 g of ai/ha

| Structure (SMILES) | Winter barley observed (% damage) (Winter barley; [1]) [%] | Winter wheat observed (% damage) (Winter wheat; [1]) [%] | Winter barley observed (% damage) (Winter barley; [2]) [%] | Winter wheat observed (% damage) (Winter wheat; [3]) [%] | Winter wheat observed (% damage) (Winter wheat; [2]) [%] | Winter barley observed (% damage) (Winter barley; application rate 60 g of ai/ha) [%] | Winter barley observed (% damage) (Winter barley; [3]) [%] | other results |
| --- | --- | --- | --- | --- | --- | --- | --- | --- |
| CCCCCC(C)OC(=O)COc1ccc(Cl)c2cccnc12 (stereo not drawn) [cloquintocet-mexyl, 1-methyl-hexyl 5-chloro-quinolin-8-oxy-acetate, reference compound] | 0 | 0 |  |  |  |  |  |  |
| CCc1cc(Br)cc(CC)c1C1=C(O)C(C)(C(C)C)NC1=O (stereo not drawn) [Example I-1-a-3] |  |  | 40 | 10 | 15 |  |  |  |
| CCCC1(C)NC(=O)C(c2c(C)cc(C)cc2C)=C1O (stereo not drawn) [Example I-1-a-1] |  |  |  |  |  |  |  | Winter barley observed (% damage) (Winter barley; application rate 110 g of ai/ha): 10%; Winter barley observed (% damage) (Winter barley; application rate 220 g of ai/ha): 25%; Winter barley observed (% damage) (Winter barley; application rate 440 g of ai/ha): 70% |
| Cc1cc(-c2ccc(Cl)cc2)cc(C)c1C1=C(O)C2(CCOCC2)NC1=O [Example I-1-a-4] |  |  | 35 |  |  | 5 | 35 |  |
| CCc1cc(Br)cc(C)c1C1=C(O)C2(CCC(C)CC2)NC1=O (stereo not drawn) [Example I-1-a-2] |  |  | 65 | 10 | 40 | 5 | 20 |  |
| CCOC(=O)C1=NN(c2ccc(Cl)cc2Cl)C(C)(C(=O)OCC)C1 (stereo not drawn) [Mefenpyr-diethyl, diethyl 1-(2,4-dichloro-phenyl)-4,5-dihydro-5-methyl-1H-pyrazole-3,5-dicarboxylate, reference compound] | 0 | 0 |  |  |  |  |  |  |

From patent US7432225B2, “Selective herbicides based on substituted cyclic keto-enols and safeners” (Bayer CropScience AG, priority 2001, dated 2008)
